System: 598228-144-R-J1-PDC complex spheroid viability
Experiment: Anticancer human tumor 598228-144-R-J1-PDC patient-derived serous endometrial adenocarcinoma cell line growth inhibition [GQUAD]
Settings: for IC50: curve of first compound; for viability, T/C: stronger effect = lower value
Text: DNA G-quadruplex Stabilizer Agents in Combinations in Complex Spheroids
A high-throughput screen of multi-cell type tumor spheroids was designed to identify active combinations of DNA G-quadruplex stabilizer agents and targeted small molecules. Complex spheroids include a stromal component modeled by human endothelial cells (HUVEC) and fibroblasts modeled by human mesenchymal stem cells (MSCs). The concentration ranges selected for each drug and investigational agent were based upon clinically achievable concentrations if the clinical Cmax of the agent was known.
Compounds. The drugs and investigational agents: pidnarulex (CX-5461; NSC782164), APTO-253 (NSC789042), BRACO-19 (NSC847499), peposertib (NSC802822), ceralasertib (NSC780249), elimusertib (NSC800525), camonsertib (NSC841442), AZD-1390 (NSC803789), olaparib (NSC753686), talazoparib (NSC767125), ART-558 (NSC835418), sotorasib (NSC818433), MRTX-1133 (NSC836407), SN-38 (NSC673596), topotecan (NSC609699), etoposide (NSC141540), doxorubicin (NSC123127), gemcitabine (NSC613327), 5-fluorouracil (NSC19893), paclitaxel (NSC125973), vemurafenib (NSC761431), panobinostat (NSC761190), R-306465 (JNJ-16241199; NSC773264), adavosertib (NSC754352), TP-3654 (NSC805149), carboplatin (NSC241240), KSQ-4279 (NSC840948), and staurosporine (NSC755774) were obtained from the National Cancer Institute (NCI) Developmental Therapeutics Program Chemical Repository (34). The FDA-approved anticancer drug set is available from the NCI Developmental Therapeutics Program. […] The stock solutions were prepared in dimethyl sulfoxide (DMSO, Sigma-Aldrich, St. Louis, MO, cat. D2650) at 800-fold the tested concentration and stored at -70 degrees C prior to their use. All drugs and investigational agents were tested over a range starting from a high concentration at or near the clinical Cmax and decreasing in half-log increments. If the clinical Cmax for an agent had not been determined, the highest concentration tested was 10 microM.
2.3 Cell Culture. All cells were maintained in an incubator at 37 degrees C and 5% CO2 with 95% humidity. The PDC lines were cultured according to standard operating procedures established by the NCI PDMR. All PDCs were thawed and cultured in Matrigel-coated flasks prepared with a working solution of 1X Ham's F-12 nutrient mix, without supplementation (Invitrogen, cat. 11765054), 100 U/mL penicillin-streptomycin (Invitrogen, cat. 15140122), and 2.5% Matrigel (Corning Inc., cat. 354248) for the first three passages. The 857933-349-R-J2-PDC line was cultured in 6C/Colon 1B media, which includes advanced DMEM/F-12 (Thermo Fisher Scientific, cat. 12634028), 10 mM HEPES (Thermo Fisher Scientific, cat. 15630080), 1X GlutaMAX supplement (Thermo Fisher Scientific, cat. 35050061), 0.1 mg/mL primocin (InvivoGen, cat. ant-pm-2), 10% defined fetal bovine serum, heat inactivated (HyClone Laboratories Inc., cat. SH30070.03HI), 50% L-WRN conditioned media (ATCC, cat. CRL-3276), 1.25 mM N-Acetyl-L-cysteine (Sigma-Aldrich, cat. A9165), 10 mM nicotinamide (Sigma-Aldrich, cat. N0636), 1X B-27 supplement (Thermo Fisher Scientific, cat. 17504044), 1X N-2 supplement (Thermo Fisher Scientific, cat. 17502048), 10 microM Y-27632 dihydrochloride (Tocris Bioscience, cat. 1254), and 50 ng/mL human EGF recombinant protein (Thermo Fisher Scientific, cat. PHG0311). The 485176-168-R4-J1-PDC line was cultured in Panc media, which includes all 6C/Colon 1B media components plus 100 ng/mL human FGF-10 (Thermo Fisher Scientific, cat. 100-26), 500 nM SB-431542 (Selleckchem, cat. S1067), and gastrin (Tocris, cat. 3006).
[…]

[1] = second compound 0.0316 µM, first compound 0.0316 µM
[2] = second compound 0.0316 µM, first compound 0.1 µM
[3] = second compound 0.0316 µM, first compound 0.316 µM
[4] = second compound 0.0316 µM, first compound 1 µM
[5] = second compound 0.0316 µM, first compound 3.16 µM
[6] = second compound 0.0316 µM, first compound 10 µM
[7] = second compound 0.1 µM, first compound 0.0316 µM
[8] = second compound 0.1 µM, first compound 0.1 µM
[9] = second compound 0.1 µM, first compound 0.316 µM
[10] = second compound 0.1 µM, first compound 1 µM
[11] = second compound 0.1 µM, first compound 3.16 µM
[12] = second compound 0.1 µM, first compound 10 µM
[13] = second compound 0.316 µM, first compound 0.0316 µM
[14] = second compound 0.316 µM, first compound 0.1 µM
[15] = second compound 0.316 µM, first compound 0.316 µM
[16] = second compound 0.316 µM, first compound 1 µM
[17] = second compound 0.316 µM, first compound 3.16 µM
[18] = second compound 0.316 µM, first compound 10 µM
[19] = second compound 1 µM, first compound 0.0316 µM
[20] = second compound 1 µM, first compound 0.1 µM
[21] = second compound 1 µM, first compound 0.316 µM
[22] = second compound 1 µM, first compound 1 µM
[23] = second compound 1 µM, first compound 3.16 µM
[24] = second compound 1 µM, first compound 10 µM
[25] = second compound 3.16 µM, first compound 0.0316 µM
[26] = second compound 3.16 µM, first compound 0.1 µM
[27] = second compound 3.16 µM, first compound 0.316 µM
[28] = second compound 3.16 µM, first compound 1 µM
[29] = second compound 3.16 µM, first compound 3.16 µM
[30] = second compound 3.16 µM, first compound 10 µM
[31] = second compound 10 µM, first compound 0.0316 µM
[32] = second compound 10 µM, first compound 0.1 µM
[33] = second compound 10 µM, first compound 0.316 µM
[34] = second compound 10 µM, first compound 1 µM
[35] = second compound 10 µM, first compound 3.16 µM
[36] = second compound 10 µM, first compound 10 µM
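Note: spheroids exposed to the agents for one week before reading.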
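Throughout, for viability, T/C: percent of vehicle DMSO control viability so 100% = untreated growth.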

CC(C)n1c(=O)n(C)c2cnc3cc(F)c(-c4ccc(OCCCN5CCCCC5)nc4)cc3c21 + Cc1cnc(CNC(=O)c2c(=O)c3ccc(N4CCCN(C)CC4)nc3n3c2sc2ccccc23)cn1
IC50 (second compound 0.0316 µM): 8280 nM
IC50 (second compound 0.1 µM): 793 nM
IC50 (second compound 0.316 µM): 3550 nM
IC50 (second compound 1 µM): 2620 nM
IC50 (second compound 3.16 µM): < 31.6 nM
IC50 (second compound 10 µM): < 31.6 nM
viability, T/C [1]: 58.2%
viability, T/C [2]: 78.2%
viability, T/C [3]: 77.8%
viability, T/C [4]: 63.1%
viability, T/C [5]: 62.8%
viability, T/C [6]: 47.5%
viability, T/C [7]: 70.2%
viability, T/C [8]: 57.9%
viability, T/C [9]: 53.4%
viability, T/C [10]: 44.3%
viability, T/C [11]: 61.3%
viability, T/C [12]: 36.8%
viability, T/C [13]: 52.1%
viability, T/C [14]: 50.3%
viability, T/C [15]: 55.1%
viability, T/C [16]: 48.8%
viability, T/C [17]: 52.1%
viability, T/C [18]: 36%
viability, T/C [19]: 53.2%
viability, T/C [20]: 59.2%
viability, T/C [21]: 59.6%
viability, T/C [22]: 56.5%
viability, T/C [23]: 47.5%
viability, T/C [24]: 28.1%
viability, T/C [25]: 50.4%
viability, T/C [26]: 46%
viability, T/C [27]: 48.3%
viability, T/C [28]: 50.5%
viability, T/C [29]: 38.1%
viability, T/C [30]: 3.5%
viability, T/C [31]: 40.7%
viability, T/C [32]: 36.6%
viability, T/C [33]: 39.1%
viability, T/C [34]: 29.9%
viability, T/C [35]: 25%
viability, T/C [36]: 0.34%

CC(C)(O)C1CCC(Nc2ccc3ncc(-c4cccc(C(F)(F)F)c4)n3n2)CC1 (stereo unspecified) + Cc1[nH]c2ccc(F)cc2c1-c1nc2c3cccnc3c3ncccc3c2[nH]1
IC50 (second compound 0.0316 µM): 2400 nM
IC50 (second compound 0.1 µM): 2370 nM
IC50 (second compound 0.316 µM): 2240 nM
IC50 (second compound 1 µM): 1290 nM
IC50 (second compound 3.16 µM): < 31.6 nM
IC50 (second compound 10 µM): 1330 nM
viability, T/C [1]: 106%
viability, T/C [2]: 112%
viability, T/C [3]: 109%
viability, T/C [4]: 86.5%
viability, T/C [5]: 38.8%
viability, T/C [6]: 30.7%
viability, T/C [7]: 133%
viability, T/C [8]: 121%
viability, T/C [9]: 103%
viability, T/C [10]: 95.3%
viability, T/C [11]: 32.2%
viability, T/C [12]: 30.1%
viability, T/C [13]: 77.5%
viability, T/C [14]: 85.5%
viability, T/C [15]: 81.3%
viability, T/C [16]: 93.8%
viability, T/C [17]: 35.2%
viability, T/C [18]: 26.3%
viability, T/C [19]: 58.7%
viability, T/C [20]: 67%
viability, T/C [21]: 57.5%
viability, T/C [22]: 55.8%
viability, T/C [23]: 30.6%
viability, T/C [24]: 24%
viability, T/C [25]: 30.7%
viability, T/C [26]: 40.9%
viability, T/C [27]: 38.8%
viability, T/C [28]: 39.7%
viability, T/C [29]: 23.1%
viability, T/C [30]: 27.7%
viability, T/C [31]: 76.4%
viability, T/C [32]: 52.6%
viability, T/C [33]: 63.2%
viability, T/C [34]: 57.2%
viability, T/C [35]: 25.9%
viability, T/C [36]: 30.7%

O=C(NO)c1cnc(N2CCN(S(=O)(=O)c3ccc4ccccc4c3)CC2)nc1 + Cc1[nH]c2ccc(F)cc2c1-c1nc2c3cccnc3c3ncccc3c2[nH]1
IC50 (second compound 0.0316 µM): 187 nM
IC50 (second compound 0.1 µM): 248 nM
IC50 (second compound 0.316 µM): 209 nM
IC50 (second compound 1 µM): 123 nM
IC50 (second compound 3.16 µM): < 31.6 nM
IC50 (second compound 10 µM): 127 nM
viability, T/C [1]: 120%
viability, T/C [2]: 80.4%
viability, T/C [3]: 25.1%
viability, T/C [4]: 0.4%
viability, T/C [5]: 0.21%
viability, T/C [6]: 0.21%
viability, T/C [7]: 99.4%
viability, T/C [8]: 97.2%
viability, T/C [9]: 37.5%
viability, T/C [10]: 0.48%
viability, T/C [11]: 0.3%
viability, T/C [12]: 0.23%
viability, T/C [13]: 94.3%
viability, T/C [14]: 90.2%
viability, T/C [15]: 27.6%
viability, T/C [16]: 0.67%
viability, T/C [17]: 0.25%
viability, T/C [18]: 0.34%
viability, T/C [19]: 62.3%
viability, T/C [20]: 52.7%
viability, T/C [21]: 28.8%
viability, T/C [22]: 1%
viability, T/C [23]: 0.31%
viability, T/C [24]: 0.56%
viability, T/C [25]: 39.8%
viability, T/C [26]: 29.3%
viability, T/C [27]: 19.3%
viability, T/C [28]: 0.37%
viability, T/C [29]: 0.44%
viability, T/C [30]: 0.51%
viability, T/C [31]: 67.4%
viability, T/C [32]: 54.9%
viability, T/C [33]: 27.5%
viability, T/C [34]: 1.72%
viability, T/C [35]: 0.78%
viability, T/C [36]: 0.43%

Reference: PubChem BioAssay AID2060506 (Molecular Pharmacology Branch, DTP, NCI, 2025)
